Values after ≈ are worked out from the molar mass of the structure shown.
Legend:
[1] = test system: Streptococcus pneumoniae ATCC 49619; assay: Susceptibility of bacteria, broth microdilution MIC; assay type: cell-based; conditions: ATCC49619
Experimental: (§1) The antibacterial activity of the compounds of the present invention was tested by the broth microdilution method. The assay was carried out according to the CLSI guidelines for managing the procedures of susceptibility tests: “M7-A7 Methods for Dilution Antimicrobial Susceptibility Tests for Bacteria That Grow Aerobically; Approved Standard-Seventh Edition (2006)”. Test strains were grown on appropriate agar plates overnight. A broth containing the test compound diluted serially 2-fold and diluents were dispensed at 100 μL to each well of a 96-well microplate. As a growth control, a well with a broth not containing the test compound was also prepared. Colonies grown on the plates were suspended in saline, adjusted to 0.5 McFarland (OD625=0.08 to 0.10) using a colorimeter, and then diluted 10-fold with saline. The bacterial suspension was inoculated at 4 μL into each well of the microplate using a bacterial suspension inoculation apparatus. The inoculated microplate was incubated at 35° C. overnight (about 20 hours). The growth condition was observed by the naked eye, and the minimum concentration to inhibit bacterial proliferation was defined as a minimum inhibitory concentration (MIC).

E. faecium ATCC 29212 = assay: as above; assay type: cell-based; conditions: Enterococcus faecium, ATCC29212
Experimental: as §1

[2] = test system: Haemophilus influenzae ATCC 49247; assay: as above; assay type: cell-based; conditions: ATCC49247
Experimental: as §1

Staphylococcus aureus = assay: Neutropenic mouse thigh or calf muscle infection model; assay type: in vivo; conditions: neutropenic mice, compared with linezolid
Description: After culture in broth medium (i) suitable diluent of a bacterial suspension of the Staphylococcus aureus strain, or (ii) equivalent mixture of suitable diluent of a bacterial suspension of the Enterococcus faecium strain and a 10% mucin suspension were used as the inoculum. The bacterial suspension was inoculated under anesthesia with a ketamine-xylazine mixture into the thigh or calf muscle of Swiss albino mice or ICR mice (4- to 6-week-old) compromised by the cyclophosphamide administration. The drug was administered to the mice 1 to 8 times at an interval of 3 to 24 hours. The number of bacteria in the thigh or calf muscle was counted for the non-treated group immediately before initial administration of the drug (pre-control), for the non-treated group (post-control) and for the drug-administered group on the next day of administration of the drug and infection. A change in the number of bacteria in the thigh or calf muscle was used as an index of therapeutic effect.

[3] = Oral bioavailability (BA) in rats; assay type: in vivo; conditions: male, SD, blood; Rat, 2 mg/kg oral vs jugular vein
Experimental: To SD male rats (7 week-old) fasted overnight, a solution of the test compound Captisol® was administered into the jugular vein (3 animals) and a solution of Lutrol® F68 was administered orally (3 animals). The dose of the test compounds was 2 mg/kg body weight of the rat for both administration routes. The amount of Captisol® used was 0.36 mg/kg body weight of the rat. The amount of Lutrol® F68 used was 0.02 mg/kg body weight of the rat. The BA value was calculated by the formula below using the integration value (AUCiv(0-∞)) of the blood concentration extrapolated from time 0 to infinity after administration of both test compounds. The greater a BA value of the compound shown, the higher the oral bioavailability is.

P. acnes ATCC 6523 = assay: Susceptibility of P. acnes, agar dilution MIC; assay type: cell-based; conditions: Cutibacterium acnes, ATCC6523, anaerobic
Experimental: (§2) The antibacterial activity of the compounds of the present invention against P. acnes clinical isolates was tested by the agar dilution method. The assay was carried out according to the CLSI guidelines document (Clinical and Laboratory Standards Institute, 2012 & 2016). The test strains were spread on supplemented Brucella agar (SBA) plates and grown for 42 to 48 hours at 36° C. under anaerobic condition. The test compound dilutions were prepared with Brucella broth and SBA plates containing dilution of test compound were prepared. As an anaerobic growth control and to check the aerobic contamination, plates not containing the test compound were also prepared. Colonies grown on plates were suspended with Brucella broth to adjust the turbidity to 0.5 McFarland using a densitometer. Suspension (1-2 μL) of the test strains was inoculated onto each agar surface by using a bacterial suspension inoculation apparatus (multipoint inoculator). After anaerobic incubation for 42 to 48 hours at 36° C., absence and presence of growth of each strain on growth control plates and test compounds plate were examined with unaided eye. The MIC was determined at which a marked reduction occurs in the appearance of growth on the test plate as compared to that of growth on the anaerobic control plates.

P. acnes IHMA 103740 = assay: Susceptibility of P. acnes, agar dilution MIC; assay type: cell-based; conditions: Cutibacterium acnes, IHMA103740, anaerobic
Experimental: as §2

P. acnes ATCC 6921 = assay: Susceptibility of P. acnes, agar dilution MIC; assay type: cell-based; conditions: Cutibacterium acnes, ATCC6921, anaerobic
Experimental: as §2

P. acnes IHMA 775486 = assay: Susceptibility of P. acnes, agar dilution MIC; assay type: cell-based; conditions: Cutibacterium acnes, IHMA775486, anaerobic
Experimental: as §2

[4] = test system: N. gonorrhoeae clinical isolates; assay: Susceptibility of N. gonorrhoeae, agar dilution MIC; assay type: cell-based
Experimental: The antibacterial activity of the compounds of the present invention against N. gonorrhoeae clinical isolates was tested by the agar dilution method [Clinical and Laboratory Standards Institute, 2016]. The test strains were spread on chocolate agar plates and grown for 20-24 h at 36° C. in 5% carbon dioxide. The test compound dilutions were prepared with broth and agar MIC plates were prepared using GC agar base supplemented with haemoglobin and 1% IsoVitaleX plates. As growth control plates not containing the test compound were also prepared. Colonies grown on plates were suspended with broth to adjust the turbidity to 0.5 McFarland using a densitometer. Suspension (1-2 μL) of the test strains was inoculated onto each agar surface by using a bacterial suspension inoculation apparatus (multipoint inoculator). After aerobic incubation for 20-24 h at 36° C. in 5% carbon dioxide, absence and presence of growth of each strain on growth control plates and test compounds plate were examined with unaided eye. The MIC was determined at which a marked reduction occurs in the appearance of growth on the test plate as compared to that of growth on the aerobic control plates.

SMILES	MIC [1] [µg/mL]	MIC (E. faecium ATCC 29212) [µg/mL]	MIC [2] [µg/mL]	therapeutic effect against Staphylococcus aureus (number of bacteria in thigh or calf muscle) (Staphylococcus aureus)	bioavailability [3] [%]	MIC (P. acnes ATCC 6523) [µg/mL]	MIC (P. acnes IHMA 103740) [µg/mL]	MIC (P. acnes ATCC 6921) [µg/mL]	MIC (P. acnes IHMA 775486) [µg/mL]	MIC [4] [µg/mL]
CCc1[nH]c(C(=O)N[C@@H]2CCN(c3nnc([C@H](C)O)s3)C[C@@H]2OC)nc1Cl (single isomer, unassigned) [Compound No. 5]	0.25 (≈ 0.603 µM)	0.25 (≈ 0.603 µM)	1 (≈ 2.41 µM)	equivalent to or higher than linezolid	60	–	–	–	–	–
CCc1[nH]c(C(=O)N[C@@H]2CCN(c3nnc(C(C)(C)O)s3)C[C@@H]2OC)nc1Cl [Compound No. 2, 4-Chloro-5-ethyl-N-{(3S,4R)-1-[5-(2-hydroxypropan-2-yl)-1,3,4-thiadiazol-2-yl]-3-methoxypiperidin-4-yl}-1H-imidazole-2-carboxamide]	0.25 (≈ 0.583 µM)	0.25 (≈ 0.583 µM)	0.5 (≈ 1.17 µM)	equivalent to or higher than linezolid	98	0.125 (≈ 0.291 µM)	0.125 (≈ 0.291 µM)	0.125 (≈ 0.291 µM)	0.125 (≈ 0.291 µM)	0.25 (≈ 0.583 µM)
